# Where “and” joins values, the source holds several entries; their conditions need not be identical. Identical values can stand only once.
# Assays:
# human fibroblasts = experiment: WST-1 cytotoxicity test, fibroblasts; type: cell-based; conditions: Homo sapiens, Fibroblast; WST1, 24 h; mean +/- SD, 2 independent experiments
# Description: (§1) CHO-K1 cells (ATCC-LGC Standards Sarl (Molsheim, France) and human fibroblasts (Clinisciences, Paris, France) were maintained in McCoy’s 5A and DMEM media, respectively, supplemented with 10% bovine calf serum, 2 mM glutamine, and 100 U/mL/10 μg/mL penicillin/streptomycin. They were incubated at 37°C in a humidified atmosphere containing 5% CO2. The cell lines were seeded in 96-well plates and incubated overnight. The cytotoxic effects of compounds were assessed by the colorimetric WST-1 cell proliferation assay as previously described. Briefly, a range of compound concentrations from 30 μM to 1200 μM was added to triplicate cultures, and cells were incubated at 37°C for 24 h. At the end of the incubation period, cultures were washed three times with phosphate buffer saline (PBS) and incubated in fresh culture medium containing 10% WST-1 for an additional 30 min. Cell viability was evaluated by measuring the WST-1 absorbance at 450 nm in a microplate spectrophotometer MRX1 II (Dynex technologies, Chantilly, VA, USA). The Inhibitory Concentration 50% (IC50) was chosen to evaluate the cytotoxicity of compounds. IC50 was defined as the concentration of a compound that induced a 50% decrease in viable cells. Doxorubicin was used as a positive control.
# [1] = tested on: twenty clinical isolates of P. aeruginosa; experiment: Combined antibiotic / polyamino-isoprenic derivative on MH agar plates, clinical isolates; type: cell-based, Pseudomonas aeruginosa; conditions: doxycycline 2 mg/L + compound 10 μM; 20 clinical isolates
# Description: MH agar plates were prepared, containing 2 mg/L doxycycline and 2 mg/L doxycycline in combination with compounds at a concentration of 10 μM. Bacteria, 5 μL of a suspension of each clinical isolate adjusted to 5 x 10^5 colony-forming units per ml were spotted on each plate and growth was monitored after a 18 h period of incubation at 37°C.
# PA01 is a well-studied reference strain of P. aeruginosa, however to extend our study we considered strains recently isolated from hospitalized patients. Thus, we decided to test this combination of doxycycline (2mg/L) with polyamino-isoprenic compounds (10 μM) on twenty clinical isolates recently isolated from the HIA-Laveran (see M&M section and S1 Table).
# [2] = tested on: P. aeruginosa PA0-7H (Mex EF overproducer); experiment: Antibiotic susceptibility testing (broth micro-dilution MIC), strain PA0-7H; type: cell-based, Pseudomonas aeruginosa; conditions: Pseudomonas aeruginosa, read-out: Minimal Inhibitory Concentration
# Description: (§2) Experiments were performed on the BAC-SCREEN platform of the UMR-MD1, with a Freedom EVO 150 liquid handling system (Tecan, Lyon, France).
# (§3) We concluded that compound 3 was the best compound and suitable for a more detailed study. The same experiment was performed using chloramphenicol (4 mg/L) in combination with 3 (10 μM final concentration). Amongst the 20 clinical isolates, the growth of 15 (75%) was impaired, while 5 (25%) were resistant (data not shown). These experiments were performed to study the effect of our compounds on the natural resistance of P. aeruginosa. In addition, we were wondering if compound 3 could also increase susceptibility to other antibiotic families including ß-Lactams, fluoroquinolones and aminoglycosides, that are representative of the main classes of anti-pseudomonal agents. Experiments were performed with the ß-lactams ceftazidime and ticarcillin and ciprofloxacin and amikacin. […] . […] To better characterize compound 3, we first searched for the minimum concentration of compound that allowed killing of bacteria by doxycycline, and PAßN was used as the reference molecule.
# [3] = tested on: P. aeruginosa FB1 (Mex B deleted); experiment: Antibiotic susceptibility testing (broth micro-dilution MIC), strain FB1; type: cell-based; conditions: Pseudomonas aeruginosa, read-out: Minimal Inhibitory Concentration
# Description: as §2
# [4] = tested on: P. aeruginosa PT629 (Mex AB overproducer); experiment: Antibiotic susceptibility testing (broth micro-dilution MIC), strain PT629; type: cell-based, Pseudomonas aeruginosa; conditions: Pseudomonas aeruginosa, read-out: Minimal Inhibitory Concentration
# Description: as §2, §3
# CHO-K1 cells = experiment: cells; type: cell-based, Chinese Hamster; conditions: Cricetulus griseus, CHO-K1; WST1, 24 h; mean +/- SD, 2 independent experiments
# Description: as §1
# P. aeruginosa PA01 (wt) = experiment: Antibiotic susceptibility testing (broth micro-dilution MIC), strain PA01; type: cell-based, Pseudomonas aeruginosa; conditions: Pseudomonas aeruginosa, read-out: Minimal Inhibitory Concentration
# Description: as §2
# (§4) The same experiment was performed using chloramphenicol (4 mg/L) in combination with 3 (10 μM final concentration). […] These experiments were performed to study the effect of our compounds on the natural resistance of P. aeruginosa. […] Experiments were performed with the ß-lactams ceftazidime and ticarcillin and ciprofloxacin and amikacin.
# [5] = tested on: P. aeruginosa PA01 ERY^R (Mex CD overproducer); experiment: microbe, parasite or virus in culture; type: cell-based, Pseudomonas aeruginosa; conditions: Pseudomonas aeruginosa, read-out: Minimal Inhibitory Concentration
# Description: as §2, §4
# [6] = tested on: P. aeruginosa CMZ091 (Mex XY overproducer); experiment: Antibiotic susceptibility testing (broth micro-dilution MIC), strain CMZ091; type: cell-based, Pseudomonas aeruginosa; conditions: Pseudomonas aeruginosa, read-out: Minimal Inhibitory Concentration
# Description: as §2, §3
SMILES,IC50 (human fibroblasts) [µM],isolates with doxycycline susceptibility restored [1] [%],MIC [2],MIC [3],MIC [4],IC50 (CHO-K1 cells) [µM],MIC (P. aeruginosa PA01 (wt)),MIC [5],MIC [6]
CC(C)=CCCC(C)=CCCC(C)=CCNCCCN(CCCN)CCCN [Compound 4],136 ± 7.9,88,49 µg/mL and 125 µM,49 µg/mL and 125 µM,49 µg/mL and 125 µM,363 ± 20.3,49 µg/mL and 125 µM,25 µg/mL and 62.5 µM,49 µg/mL and 125 µM
O=C(N[C@H](CO)[C@H](O)c1ccc([N+](=O)[O-])cc1)C(Cl)Cl [chloramphenicol],,,> 1020 µg/mL,8 µg/mL,512 µg/mL,,256 µg/mL,256 µg/mL,256 µg/mL
